This is an account of results in publication PMC8284453 (Antimicrobial Agents and Chemotherapy, 2021).

Assay [1] has as its system Enterobacterales expressing class A carbapenemases (KPC). Briefly: organism not typed. It counts as cell-based, K. pneumoniae, E. coli, E. cloacae, Klebsiella oxytoca.
The test system of assay [2] is isogenic strains of E. coli expressing Ambler class A, B, C, and D enzymes. The experiment in a line: microbe, parasite or virus in culture. Type of assay: cell-based, Escherichia coli. Conditions: Escherichia coli, read-out: Vector control MIC.
In assay [3] the test system is Enterobacterales expressing class D oxacillinases (OXA-48/48-like). The experiment in a line: organism not typed. It counts as cell-based, E. coli, K. pneumoniae.
In assay [4] the test system is Enterobacterales expressing class C cephalosporinases.
The subject of assay [5] is strains of Enterobacterales expressing serine β-lactamases. Briefly: organism not typed. It counts as cell-based.
In assay [6] the test system is K. pneumoniae 752286 (OXA-48). Briefly: 24-h time-kill assay. It counts as cell-based. To be noted: Klebsiella pneumoniae; lowest concentration with ≥3-log10 CFU/ml reduction at 24 h; read-out: MBC. As for the experimental part:
(§1) In vitro antibacterial time-kill assay. […] Time-kill assays were performed in 14 ml glass tubes or deep-well storage plates with a bacterial inoculum in CAMHB of 5 × 10^5 CFU/ml. The tubes/plates were incubated at 37°C with shaking at 200 rpm, and aliquots were drawn at six time points (0, 2, 4, 6, 8, and 24 h) to conduct 0.5 log10 dilutions in CAMHB in 96-well plates that were incubated overnight at 37°C and used to ascertain viable bacterial counts. The lowest quantifiable amount by this method is 2 log10 CFU/ml.

Assay [7] deals with E. cloacae ECL01 (TEM-72, ACT-1, P99AmpC). Briefly: 24-h time-kill assay. It counts as cell-based. As to the method:
as §1

Assay [8] has as its system E. coli ESBL4 (CTX-M-15). Briefly: 24-h time-kill assay. To be noted: Escherichia coli; lowest concentration with ≥3-log10 CFU/ml reduction at 24 h; read-out: MBC. It counts as cell-based. As for the experimental part:
as §1

Assay [9] deals with K. pneumoniae ATCC BAA-1705 (KPC-2). Briefly: 24-h time-kill assay. Type of assay: cell-based. To be noted: Klebsiella pneumoniae, ATCCBAA1705; lowest concentration with ≥3-log10 CFU/ml reduction at 24 h; read-out: MBC. As for the experimental part: as §1
Assay [10] has the same test system. Briefly: Broth microdilution MIC. Type of assay: cell-based. To be noted: Klebsiella pneumoniae, ATCCBAA1705. (In general: Dilution methods test growth across graded concentrations, often in twofold steps.)
Assay [11] deals with E. cloacae ECL01 (TEM-72, ACT-1, P99AmpC). Briefly: Broth microdilution MIC. Type of assay: cell-based. To be noted: Enterobacter cloacae.
Assay [12] concerns E. coli ESBL4 (CTX-M-15). The experiment in a line: Broth microdilution MIC. It counts as cell-based. Conditions: Escherichia coli.
Assay [13] deals with K. pneumoniae 752286 (OXA-48). Briefly: Broth microdilution MIC. Conditions: Klebsiella pneumoniae. Type of assay: cell-based.
The next assay deals with KPC-2 (Klebsiella pneumoniae, UniProt Q9F663). Briefly: IC50 determination against purified β-lactamase. Type of assay: biochemical. Set-up: made in house; host or cells: E. coli BL21(DE3), plasmid pET-KPC-2 (pET9a). To be noted: substrate imipenem; mean from duplicate measurements. As for the experimental part: An equal volume of enzyme was added (assay concentrations, 0.6 nM P99AmpC, 21 nM CTX-M-15, 3 nM KPC-2, 100 nM SHV-5), and the mixtures were preincubated for 15 min at 37°C. For AmpC, nitrocefin was then added to obtain a final concentration of 100 μM, and the absorbance at a wavelength (λ) of 486 nm (representing hydrolysis of the nitrocefin β-lactam ring) was monitored immediately using a BioTek Powerwave XS2 microplate reader. In similar fashion, using UV-transparent 96-well microtiter plates, hydrolysis of imipenem (100 μM) by KPC-2 was monitored at λ 300 nm, while cefotaxime (100 μM) hydrolysis by CTX-M-15 and SHV-5 was monitored at λ 300 nm. Assays were performed in duplicate, and the percentage inhibition relative to reaction mixtures containing no inhibitor were determined for each concentration of inhibitor.
Sequence of KPC-2 (Q9F663 25-293 limits assumed): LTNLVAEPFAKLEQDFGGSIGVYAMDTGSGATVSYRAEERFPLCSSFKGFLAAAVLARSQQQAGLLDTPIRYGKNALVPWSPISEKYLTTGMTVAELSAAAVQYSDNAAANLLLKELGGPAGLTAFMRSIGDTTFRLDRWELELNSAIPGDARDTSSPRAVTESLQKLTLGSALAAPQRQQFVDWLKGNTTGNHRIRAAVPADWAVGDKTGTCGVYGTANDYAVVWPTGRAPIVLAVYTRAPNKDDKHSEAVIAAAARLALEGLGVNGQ

Another assay deals with T1, CMY-2 (Klebsiella pneumoniae, UniProt Q48434).
T1 construct: made in house; host or cells: E. coli BL21(DE3), pET9a
T1 sequence (Q48434 21-381): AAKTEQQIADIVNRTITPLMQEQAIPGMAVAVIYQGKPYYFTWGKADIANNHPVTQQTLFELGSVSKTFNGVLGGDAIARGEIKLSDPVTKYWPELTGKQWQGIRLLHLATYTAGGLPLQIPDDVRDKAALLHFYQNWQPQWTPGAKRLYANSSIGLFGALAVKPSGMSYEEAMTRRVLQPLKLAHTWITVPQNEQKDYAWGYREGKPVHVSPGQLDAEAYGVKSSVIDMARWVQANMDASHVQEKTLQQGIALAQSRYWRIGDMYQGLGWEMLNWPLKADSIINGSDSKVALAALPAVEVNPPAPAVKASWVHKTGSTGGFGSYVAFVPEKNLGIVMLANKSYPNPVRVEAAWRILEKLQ
Briefly: IC50 determination against purified β-lactamase. It counts as biochemical. To be noted: substrate nitrocefin; mean from duplicate measurements; read-out: IC50.

The target of a further assay is T2, OXA-48 (Klebsiella pneumoniae, UniProt Q6XEC0).
T2 construct: made in house; host or cells: E. coli BL21(DE3), plasmid pET-OXA-48 (pET9a)
T2 sequence (Q6XEC0 23-265 limits assumed): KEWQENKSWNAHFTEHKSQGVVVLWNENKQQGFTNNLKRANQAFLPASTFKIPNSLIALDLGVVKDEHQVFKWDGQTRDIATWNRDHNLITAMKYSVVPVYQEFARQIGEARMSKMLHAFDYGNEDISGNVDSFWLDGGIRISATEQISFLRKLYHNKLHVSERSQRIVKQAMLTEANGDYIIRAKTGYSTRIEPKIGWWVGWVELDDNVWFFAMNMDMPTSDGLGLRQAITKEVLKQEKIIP
The experiment in a line: biochemical.

Where [14] appears, read: 25 isolates, BLI fixed at 4 μg/ml, AMC 2:1.

≈ marks a conversion by molar mass, not a printed value. Like-named read-outs stand apart in the source and are kept apart here.

As a reminder, the MIC50 is the lowest concentration that inhibits either 50% of growth or 50% of the strains tested, depending on the study. A higher MIC50 goes with lower susceptibility. By MIC90 is commonly meant the lowest concentration that inhibits either 90% of growth or 90% of the strains tested, depending on the study. The low end stands for higher susceptibility, the high end for lower susceptibility. `CC1(C)S[C@@H]2[C@H](NC(=O)[C@H](N)c3ccc(O)cc3)C(=O)N2[C@H]1C(=O)O` [AMX, amoxicillin]: the MIC in assay [1] (E. cloacae 847429 (KPC)) was not below 64 µg/mL; in assay [1] (E. cloacae OIMGH49 (p99 AmpC, ACT-2, KPC-2, TEM-1)), not below 64 µg/mL; in assay [1] (E. coli 786978 (KPC)), not below 64 µg/mL; in assay [1] (K. pneumoniae 845661 (KPC)), not below 64 µg/mL; in assay [1] (K. pneumoniae 845662 (KPC)), not below 64 µg/mL; in assay [1] (K. pneumoniae 845665 (KPC)), not below 64 µg/mL. For the same compound, the MIC in assay [1] (K. pneumoniae 845667 (KPC)), in assay [1] (K. pneumoniae 845670 (KPC)), in assay [1] (K. pneumoniae 845904 (KPC)), in assay [1] (K. pneumoniae 847204 (KPC)), in assay [1] (K. pneumoniae 847375 (KPC)) and in assay [1] (K. pneumoniae 847387 (KPC)) was not below 64 µg/mL in each case. Also, the MIC was 8 µg/mL (≈ 21.9 µM) in assay [2]; not below 256 µg/mL in [3] (E. coli 664507 (OXA-48)); not below 256 µg/mL in assay [3] (E. coli 664516 (OXA-48)); not below 256 µg/mL in [3] (E. coli 664520 (OXA-48)); not below 256 µg/mL in [3] (E. coli 664522 (OXA-48)); not below 256 µg/mL in [3] (E. coli 664523 (OXA-48)). Further, the MIC in assay [3] (E. coli 664524 (OXA-48)), in assay [3] (E. coli 664525 (OXA-48)), in assay [3] (E. coli 664526 (OXA-48)), in assay [3] (E. coli 664528 (OXA-48)), in [3] (E. coli 787112 (OXA-48)) and in assay [3] (E. coli SI-422 (OXA-48)) was not below 256 µg/mL in each case. The MIC in assay [3] (E. coli VER (OXA-48)) was not below 256 µg/mL; in assay [3] (K. pneumoniae 6299 (OXA-163)), not below 256 µg/mL; in [3] (K. pneumoniae 515746 (OXA-48), first line), not below 256 µg/mL; in assay [3] (K. pneumoniae 515746 (OXA-48), second line), not below 256 µg/mL; in assay [3] (K. pneumoniae 664438 (OXA-48)), not below 256 µg/mL; in [3] (K. pneumoniae 664439 (OXA-48)), not below 256 µg/mL. Besides, the MIC in [3] (K. pneumoniae 664509 (OXA-48)), in assay [3] (K. pneumoniae 664518 (OXA-48)), in assay [3] (K. pneumoniae 722870 (OXA-48)), in [3] (K. pneumoniae BAH (OXA-204)), in assay [3] (K. pneumoniae DEL (OXA-232)) and in [3] (K. pneumoniae DOV (OXA-48)) was not below 256 µg/mL in each case. For the same compound, the MIC in [3] (K. pneumoniae KIRK (OXA-162)) is not below 256 µg/mL; in [3] (K. pneumoniae SI-C17 (OXA-48)), not below 256 µg/mL; in [4] (C. freundii 134390 (AmpC, TEM-1)), not below 256 µg/mL; in assay [4] (E. aerogenes 110099 (AmpC, SHV-12)) it was not below 256 µg/mL; in assay [4] (E. aerogenes 111707 (AmpC, TEM-1)) it was not below 256 µg/mL; in assay [4] (E. aerogenes 111902 (AmpC, TEM-1)), not below 256 µg/mL. Also, the MIC in assay [4] (E. coli 128 (AmpC, SHV-12, TEM-1, Toho-2)) was 128 µg/mL (≈ 350 µM); in assay [4] (E. coli 3102 (AmpC, CTX-M-15, TEM-1)) it was 32 µg/mL (≈ 87.6 µM); in assay [4] (E. coli CH1 (AmpC, CTX-M-15, SHV-1, SHV-5, TEM-1)), not below 256 µg/mL; in assay [4] (E. coli EC469 (AmpC, SHV-12, TEM-1)), 128 µg/mL (≈ 350 µM); in assay [4] (E. coli J53 (AmpC, SHV-5, TEM-1)), 128 µg/mL (≈ 350 µM); in assay [4] (E. coli SI-P026TC (CMY-2, TEM-1)), not below 256 µg/mL. In addition, the MIC in assay [4] (E. coli SI-PO26 (AmpC, CMY-2, TEM-1)) was not below 256 µg/mL; in [4] (K. pneumoniae 129032 (MOX-2, SHV-12, TEM-1)), not below 256 µg/mL; in assay [4] (K. pneumoniae 178279 (AmpC, SHV-12, TEM-1)), not below 256 µg/mL; in assay [4] (K. pneumoniae 212027 (AmpC, FOX-5, TEM-1)), not below 256 µg/mL; in assay [4] (K. pneumoniae 217917 (CMY-2, TEM-1)), not below 256 µg/mL; in assay [4] (K. pneumoniae 301313 (AmpC, SHV-12, TEM-1)), not below 256 µg/mL. Besides, the MIC in assay [4] (K. pneumoniae 398845 (CMY-2, SHV-12, TEM-1)) is not below 256 µg/mL; in assay [4] (K. pneumoniae SI-F100 (CMY-2, SHV-5, TEM-1)), not below 256 µg/mL; in assay [4] (P. mirabilis SI-F014 (AmpC, TEM-72)), not below 256 µg/mL; in assay [4] (S. marcescens 132253 (AmpC, CTX-M-3, OXA-1, SHV-12, TEM-1)), not below 256 µg/mL; in [4] (S. marcescens 134434 (AmpC, SHV-12, TEM-1)), not below 256 µg/mL; in assay [4] (S. marcescens 142397 (AmpC, SHV-7, TEM-1)) it was not below 256 µg/mL. Also, the MIC in assay [4] (S. marcescens 156212 (AmpC, SHV-12, TEM-1)) was not below 256 µg/mL; in assay [4] (S. marcescens 192478 (AmpC, SHV-12, TEM-1)), not below 256 µg/mL; in assay [4] (S. marcescens 218068 (AmpC, SHV-7, TEM-1)), not below 256 µg/mL. The MIC50 in assay [3] (setting [14]) and in assay [4] (setting [14]) was not below 256 µg/mL in each case. The MIC90 in assay [3] (setting [14]) and in assay [4] (setting [14]) was not below 256 µg/mL each time. The compound also had an MIC range in assay [3] (setting [14]) not below 256 µg/mL.
`CO/N=C(\C(=O)N[C@@H]1C(=O)N2C(C(=O)O)=C(/C=C\c3scnc3C)CS[C@H]12)c1csc(N)n1` [Cefditoren, cefditoren]: in assay [5], the MIC50 was determined as 0.5 µg/mL (≈ 0.987 µM) and the MIC90 worked out at 2 µg/mL (≈ 3.95 µM).
On the same counts, the results for `C=CC1=C(C(=O)O)N2C(=O)[C@@H](NC(=O)/C(=N\OCC(=O)O)c3csc(N)n3)[C@H]2SC1` [Cefixime, cefixime] are 0.5 µg/mL (≈ 1.1 µM) and 2 µg/mL (≈ 4.41 µM).
The term MBC denotes the lowest tested concentration that kills the bacteria rather than only halting them. `C[C@H]1COc2c(N3CCN(C)CC3)c(F)cc3c(=O)c(C(=O)O)cn1c23` [Levofloxacin, levofloxacin]: the MBC in assay [6] is more than 32 µg/mL; in assay [7] (Enterobacter cloacae, lowest concentration with ≥3-log10 CFU/ml reduction at 24 h, read-out: MBC), 0.12 µg/mL (≈ 0.332 µM); in the assay on E. coli ESBL4 (CTX-M-15) [8], 32 µg/mL (≈ 88.6 µM); in assay [9] it was not below 64 µg/mL. Besides, the “outcome of 24-h time-kill assay” value in assay [7] (Fig. 3b) is listed as “bactericidal activity”. Further, the MIC was 64 µg/mL (≈ 177 µM) in assay [10], 0.12 µg/mL (≈ 0.332 µM) in assay [11], 32 µg/mL (≈ 88.6 µM) in the assay on E. coli ESBL4 (CTX-M-15) [12] and 32 µg/mL (≈ 88.6 µM) in assay [13].
One may read the IC50 as the midpoint of a concentration-inhibition curve. As for `C[C@]1(Cn2ccnn2)[C@H](C(=O)O)N2C(=O)C[C@H]2S1(=O)=O` [Tazobactam, tazobactam], the IC50 was 1700 nM on KPC-2, 410 nM at CMY-2 and 3.5 µM on OXA-48.
